# According to ChEMBL document CHEMBL2396621, “Design, synthesis and biological evaluation of 2-mercapto-3-phenethylquinazoline bearing anilide fragments as potential antitumor agents: molecular docking study” (2013):
# Columns and labels:
# Assay type in all cases: functional
# [1] = tested on: HCC 2998; test: Cytotoxicity against human HCC2998 cells assessed as growth inhibition at 10 uM after 48 hrs by coulter counter analysis; details: HCC 2998, 48 h, read-out: GI
# [2] = tested on: SN12C; test: Cytotoxicity against human SN12C cells assessed as growth inhibition at 10 uM after 48 hrs by coulter counter analysis; details: read-out: GI
# [3] = tested on: SW-620; test: Cytotoxicity against human SW620 cells assessed as growth inhibition at 10 uM after 48 hrs by coulter counter analysis; details: SW-620, 48 h, read-out: GI
# [4] = tested on: HOP-62; test: Cytotoxicity against human HOP62 cells assessed as growth inhibition at 10 uM after 48 hrs by coulter counter analysis; details: HOP-62, 48 h, read-out: GI
# [5] = tested on: CAKI-1; test: Cytotoxicity against human Caki1 cells assessed as growth inhibition at 10 uM after 48 hrs by coulter counter analysis; details: CAKI-1, 48 h, read-out: GI
# [6] = tested on: A549; test: Cytotoxicity against human A549 cells assessed as growth inhibition at 10 uM after 48 hrs by coulter counter analysis; details: A549, 48 h, read-out: GI
# [7] = tested on: MDA-MB-231; test: Cytotoxicity against human MDA-MB-231 cells assessed as growth inhibition at 10 uM after 48 hrs by coulter counter analysis; details: MDA-MB-231, 48 h, read-out: GI
# [8] = tested on: MDA-MB-468; test: Cytotoxicity against human MDA-MB-468 cells assessed as growth inhibition at 10 uM after 48 hrs by coulter counter analysis; details: MDA-MB-468, 48 h, read-out: GI
# [9] = tested on: MOLT-4; test: Cytotoxicity against human MOLT4 cells assessed as growth inhibition at 10 uM after 48 hrs by coulter counter analysis; details: MOLT-4, 48 h, read-out: GI
# [10] = tested on: HL-60(TB); test: Cytotoxicity against human HL-60(TB) cells assessed as growth inhibition at 10 uM after 48 hrs by coulter counter analysis; details: HL-60, 48 h, read-out: GI
# [11] = tested on: M14; test: Cytotoxicity against human M14 cells assessed as growth inhibition at 10 uM after 48 hrs by coulter counter analysis; details: M14, 48 h, read-out: GI
# [12] = tested on: A498; test: Cytotoxicity against human A498 cells assessed as growth inhibition at 10 uM after 48 hrs by coulter counter analysis; details: A498, 48 h, read-out: GI
# [13] = Cytotoxicity against human NCI-ADR-RES cells assessed as growth inhibition at 10 uM after 48 hrs by coulter counter analysis; details: read-out: GI
# [14] = tested on: OVCAR-5; test: Cytotoxicity against human OVCAR5 cells assessed as growth inhibition at 10 uM after 48 hrs by coulter counter analysis; details: OVCAR-5, 48 h, read-out: GI
# [15] = tested on: HCT-15; test: Cytotoxicity against human HCT15 cells assessed as growth inhibition at 10 uM after 48 hrs by coulter counter analysis; details: HCT-15, 48 h, read-out: GI
# [16] = tested on: Malme-3M; test: Cytotoxicity against human MALME-3M cells assessed as growth inhibition at 10 uM after 48 hrs by coulter counter analysis; details: read-out: GI
# [17] = tested on: MDA-MB-435; test: Cytotoxicity against human MDA-MB-435 cells assessed as growth inhibition at 10 uM after 48 hrs by coulter counter analysis; details: MDA-MB-435, 48 h, read-out: GI
Structure (SMILES),inhibition of growth at 10 µM [1],inhibition of growth at 10 µM [2],inhibition of growth at 10 µM [3],inhibition of growth at 10 µM [4],inhibition of growth at 10 µM [5],inhibition of growth at 10 µM [6],inhibition of growth at 10 µM [7],inhibition of growth at 10 µM [8],inhibition of growth at 10 µM [9],inhibition of growth at 10 µM [10],inhibition of growth at 10 µM [11],inhibition of growth at 10 µM [12],inhibition of growth at 10 µM [13],inhibition of growth at 10 µM [14],inhibition of growth at 10 µM [15],inhibition of growth at 10 µM [16],inhibition of growth at 10 µM [17]
O=C(CSc1nc2ccccc2c(=O)n1CCc1ccccc1)Nc1ccccc1,< 10%,< 10%,< 10%,< 10%,< 10%,16%,35%,18%,< 10%,17%,10%,11%,< 10%,< 10%,< 10%,< 10%,< 10%
O=C(CSc1nc2ccccc2c(=O)n1CCc1ccccc1)Nc1ccc(Cl)cc1,< 10%,13%,11%,40%,42%,16%,37%,36%,,,< 10%,< 10%,21%,< 10%,16%,< 10%,13%
O=C(CSc1nc2ccccc2c(=O)n1CCc1ccccc1)Nc1ccc(F)cc1,< 10%,19%,< 10%,< 10%,22%,23%,22%,23%,26%,25%,18%,10%,< 10%,< 10%,10%,11%,< 10%
Cc1ccc(NC(=O)CSc2nc3ccccc3c(=O)n2CCc2ccccc2)cc1,< 10%,< 10%,10%,42%,13%,21%,23%,29%,< 10%,< 10%,< 10%,< 10%,< 10%,< 10%,10%,17%,17%
COc1ccc(NC(=O)CSc2nc3ccccc3c(=O)n2CCc2ccccc2)cc1,< 10%,< 10%,11%,52%,13%,25%,39%,13%,,,25%,< 10%,15%,< 10%,< 10%,40%,10%
